Assay results reported in US4393225A, “AI-77 Compounds and pharmaceutically acceptable salts thereof” (Asahi Kasei Kogyo Kabushiki Kaisha, priority 1979, dated 1983).

Each molecule was assayed on ulcer (assay: Anti-ulcer test (restraint and water immersion ulcer in rats, i.p.)). Settings: Rattus norvegicus, ip, read-out: % Inhibition of Ulcer.
Format: in vivo, Male Wistar rats
How it was run: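 Compound given intraperitoneally in saline to 24 h-fasted male Wistar rats about 150 g, followed after one hour by 6 h restraint with water immersion at 21 °C. Gastric lesions graded 0, 0.5, 1, 2 or 3 on microscopic inspection and converted to percent ulcer inhibition.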

| Compound | inhibition in vivo at 25 mg/kg [%] |
| --- | --- |
| CCCCCOC(C)CCNC(=O)CC(N)C(O)C(O)C(=O)NC(CC(C)C)C1Cc2cccc(O)c2C(=O)O1 (stereo not shown) [VII-1-27] | 89 |
| COC(C(=O)NC(CC(C)C)C1Cc2cccc(O)c2C(=O)O1)C(O)C(N)CC(N)=O (stereo not shown) [VII-8-1] | 89 |
| CCCCCNC(CC(N)=O)C(O)C(O)C(=O)NC(CC(C)C)C1Cc2cccc(O)c2C(=O)O1 (stereo not shown) [VII-10-2] | 94 |
| CCCCNC(CC(N)=O)C(O)C(OC(=O)CCC)C(=O)NC(CC(C)C)C1Cc2cccc(O)c2C(=O)O1 (stereo not shown) [VII-11-3] | 66 |
| CCNC(CC(=O)NCCCl)C(O)C(OC(=O)CC)C(=O)NC(CC(C)C)C1Cc2cccc(O)c2C(=O)O1 (stereo not shown) [VII-11-4] | 56 |

Same assay, conditions: Rattus norvegicus, ip; 25 mg/kg i.p.; read-out: % Inhibition of Ulcer

| Compound | inhibition in vivo at 25 mg/kg [%] |
| --- | --- |
| CCCCCCCCC=CCCCCCCCCNC(=O)CC(N)C(O)C(O)C(=O)NC(CC(C)C)C1Cc2cccc(O)c2C(=O)O1 (stereo not shown) [VII-1-8] | 89 |
| CC(C)CC(NC(=O)C(O)C(O)C(N)CC(=O)NCc1ccccc1)C1Cc2cccc(O)c2C(=O)O1 (stereo not shown) [VII-1-10] | 94 |
| CC(C)CC(NC(=O)C(O)C(O)C(N)CC(=O)NC1CC1)C1Cc2cccc(O)c2C(=O)O1 (stereo not shown) [VII-1-11] | 94 |
| CC(C)CC(NC(=O)C(O)C(O)C(N)CC(=O)NCC1CCCCC1)C1Cc2cccc(O)c2C(=O)O1 (stereo not shown) [VII-1-12] | 94 |
| CC(C)CC(NC(=O)C(O)C(O)C(N)CC(=O)NCCc1ccccc1)C1Cc2cccc(O)c2C(=O)O1 (stereo not shown) [VII-1-13] | 89 |
| CC(C)CC(NC(=O)C(O)C(O)C(N)CC(=O)NCc1ccco1)C1Cc2cccc(O)c2C(=O)O1 (stereo not shown) [VII-1-14] | 89 |
| CC(C)CC(NC(=O)C(O)C(O)C(N)CC(=O)NCC1CCCO1)C1Cc2cccc(O)c2C(=O)O1 (stereo not shown) [VII-1-15] | 89 |
| CC(C)CC(NC(=O)C(O)C(O)C(N)CC(=O)NCCC1CCCCO1)C1Cc2cccc(O)c2C(=O)O1 (stereo not shown) [VII-1-16] | 94 |
| CC(=O)N1CCC(CNC(=O)CC(N)C(O)C(O)C(=O)NC(CC(C)C)C2Cc3cccc(O)c3C(=O)O2)CC1 (stereo not shown) [VII-1-17] | 83 |
| CC(C)CC(NC(=O)C(O)C(O)C(N)CC(=O)NCc1ccc2ccccc2c1)C1Cc2cccc(O)c2C(=O)O1 (stereo not shown) [VII-1-18] | 78 |
| CC(C)CC(NC(=O)C(O)C(O)C(N)CC(=O)NCCc1ccc2ccccc2c1)C1Cc2cccc(O)c2C(=O)O1 (stereo not shown) [VII-1-19] | 78 |
| CC(C)CC(NC(=O)C(O)C(O)C(N)CC(=O)NCc1cccc(Cl)c1)C1Cc2cccc(O)c2C(=O)O1 (stereo not shown) [VII-1-20] | 94 |
| CCC(=O)CNC(=O)CC(N)C(O)C(O)C(=O)NC(CC(C)C)C1Cc2cccc(O)c2C(=O)O1 (stereo not shown) [VII-1-21] | 100 |
| Cc1ccc(CNC(=O)CC(N)C(O)C(O)C(=O)NC(CC(C)C)C2Cc3cccc(O)c3C(=O)O2)cc1 (stereo not shown) [VII-1-22] | 83 |
| COc1ccc(CNC(=O)CC(N)C(O)C(O)C(=O)NC(CC(C)C)C2Cc3cccc(O)c3C(=O)O2)cc1 (stereo not shown) [VII-1-24] | 83 |
| COC(C)CCNC(=O)CC(N)C(O)C(O)C(=O)NC(CC(C)C)C1Cc2cccc(O)c2C(=O)O1 (stereo not shown) [VII-1-26] | 94 |
| CC(=O)OC(C)CCNC(=O)CC(N)C(O)C(O)C(=O)NC(CC(C)C)C1Cc2cccc(O)c2C(=O)O1 (stereo not shown) [VII-1-28] | 94 |
| CCCCCC(=O)OC(C)CCNC(=O)CC(N)C(O)C(O)C(=O)NC(CC(C)C)C1Cc2cccc(O)c2C(=O)O1 (stereo not shown) [VII-1-29] | 94 |
| CC(C)=CCCC(C)=CCNC(=O)CC(N)C(O)C(O)C(=O)NC(CC(C)C)C1Cc2cccc(O)c2C(=O)O1 (stereo not shown) [VII-1-30] | 83 |
| CCC(C)CCCCCNC(=O)CC(N)C(O)C(O)C(=O)NC(CC(C)C)C1Cc2cccc(O)c2C(=O)O1 (stereo not shown) [VII-1-31] | 83 |
| CC(C)CC(NC(=O)C(O)C(O)C(N)CC(=O)NCC1CCCCCCC1)C1Cc2cccc(O)c2C(=O)O1 (stereo not shown) [VII-1-33] | 83 |

| Compound | inhibition in vivo at 25 mg/kg [%] |
| --- | --- |
| CC(C)CC(NC(=O)C(O)C(O)C(N)CC(=O)NCCCC1CCCC1)C1Cc2cccc(O)c2C(=O)O1 (stereo not shown) [VII-1-34] | 83 |
| Cc1ccc(CCNC(=O)CC(N)C(O)C(O)C(=O)NC(CC(C)C)C2Cc3cccc(O)c3C(=O)O2)cc1 (stereo not shown) [VII-1-35] | 83 |
| CC(C)CCCC(C)CCCC(C)CCCCNC(=O)CC(N)C(O)C(O)C(=O)NC(CC(C)C)C1Cc2cccc(O)c2C(=O)O1 (stereo not shown) [VII-1-36] | 83 |
| CC(C)CC(NC(=O)C(O)C(O)C(N)CC(=O)NCc1ccc(C(C)C)cc1)C1Cc2cccc(O)c2C(=O)O1 (stereo not shown) [VII-1-38] | 94 |
| CCCCCc1ccc(CNC(=O)CC(N)C(O)C(O)C(=O)NC(CC(C)C)C2Cc3cccc(O)c3C(=O)O2)cc1 (stereo not shown) [VII-1-40] | 94 |
| CCCC=Cc1ccc(CNC(=O)CC(N)C(O)C(O)C(=O)NC(CC(C)C)C2Cc3cccc(O)c3C(=O)O2)cc1 (stereo not shown) [VII-1-41] | 83 |
| CC(C)CC(NC(=O)C(O)C(O)C(N)CC(=O)NC(C)C)C1Cc2cccc(O)c2C(=O)O1 (stereo not shown) [VII-1-42] | 94 |
| Cc1ccc(NC(=O)CC(N)C(O)C(O)C(=O)NC(CC(C)C)C2Cc3cccc(O)c3C(=O)O2)cc1 (stereo not shown) [VII-1-43] | 94 |
| CC(C)CC(NC(=O)C(O)C(O)C(N)CC(=O)NCCN1CCCCC1)C1Cc2cccc(O)c2C(=O)O1 (stereo not shown) [VII-1-46] | 94 |
| CC(=O)OC(C(=O)NC(CC(C)C)C1Cc2cccc(O)c2C(=O)O1)C(O)C(N)CC(N)=O (stereo not shown) [VII-2-1] | 78 |
| CC(=O)Oc1cccc2c1C(=O)OC(C(CC(C)C)NC(=O)C(OC(=O)C(C)C)C(O)C(N)CC(N)=O)C2 (stereo not shown) [VII-3-1] | 78 |
| CCCC(=O)Oc1cccc2c1C(=O)OC(C(CC(C)C)NC(=O)C(OC(C)=O)C(O)C(N)CC(N)=O)C2 (stereo not shown) [VII-3-2] | 78 |
| CC(C)CC(NC(=O)C(O)C(O)C(N)CC(N)=O)C1Cc2cccc(OC(=O)C(C)C)c2C(=O)O1 (stereo not shown) [VII-4-2] | 89 |
| CCCCCCCCCCCCCCCCCC(=O)Oc1cccc2c1C(=O)OC(C(CC(C)C)NC(=O)C(O)C(O)C(N)CC(N)=O)C2 (stereo not shown) [VII-4-3] | 78 |
| COc1cccc2c1C(=O)OC(C(CC(C)C)NC(=O)C(O)C(O)C(N)CC(N)=O)C2 (stereo not shown) [VII-5-1] | 78 |
| CCOc1cccc2c1C(=O)OC(C(CC(C)C)NC(=O)C(O)C(O)C(N)CC(N)=O)C2 (stereo not shown) [VII-5-2] | 78 |
| CCCCNC(=O)CC(N)C(O)C(O)C(=O)NC(CC(C)C)C1Cc2cccc(OCC)c2C(=O)O1 (stereo not shown) [VII-5-3] | 78 |
| CCOc1cccc2c1C(=O)OC(C(CC(C)C)NC(=O)C(O)C(O)C(N)CC(=O)Nc1ccc(C)cc1)C2 (stereo not shown) [VII-5-4] | 78 |
| CCOc1cccc2c1C(=O)OC(C(CC(C)C)NC(=O)C(OC(C)=O)C(O)C(N)CC(N)=O)C2 (stereo not shown) [VII-6-1] | 66 |
| CCOc1cccc2c1C(=O)OC(C(CC(C)C)NC(=O)C(OC(=O)C(C)C)C(O)C(N)CC(N)=O)C2 (stereo not shown) [VII-6-2] | 66 |
| CCOc1cccc2c1C(=O)OC(C(CC(C)C)NC(=O)C(OC(=O)CC)C(O)C(N)CC(N)=O)C2 (stereo not shown) [VII-6-3] | 66 |

| Compound | inhibition in vivo at 25 mg/kg [%] |
| --- | --- |
| CCCCOC(C(=O)NC(CC(C)C)C1Cc2cccc(OC)c2C(=O)O1)C(O)C(N)CC(N)=O (stereo not shown) [VII-7-1] | 89 |
| CCCCOc1cccc2c1C(=O)OC(C(CC(C)C)NC(=O)C(OCCCC)C(O)C(N)CC(N)=O)C2 (stereo not shown) [VII-7-2] | 72 |
| CCCCNC(=O)CC(N)C(O)C(OCCC)C(=O)NC(CC(C)C)C1Cc2cccc(OCC)c2C(=O)O1 (stereo not shown) [VII-7-4] | 66 |
| CCOC(C(=O)NC(CC(C)C)C1Cc2cccc(O)c2C(=O)O1)C(O)C(N)CC(N)=O (stereo not shown) [VII-8-3] | 89 |
| CCNC(=O)CC(N)C(O)C(OC)C(=O)NC(CC(C)C)C1Cc2cccc(OC(=O)CC)c2C(=O)O1 (stereo not shown) [VII-9-1] | 66 |
| CCCCCCCCCCCCCCCCCC(=O)Oc1cccc2c1C(=O)OC(C(CC(C)C)NC(=O)C(OC)C(O)C(N)CC(N)=O)C2 (stereo not shown) [VII-9-2] | 56 |
| COC(C(=O)NC(CC(C)C)C1Cc2cccc(OC(C)=O)c2C(=O)O1)C(O)C(N)CC(N)=O (stereo not shown) [VII-9-3] | 72 |
| CCCC(=O)Oc1cccc2c1C(=O)OC(C(CC(C)C)NC(=O)C(OCC)C(O)C(N)CC(N)=O)C2 (stereo not shown) [VII-9-4] | 78 |
| CCCNC(CC(N)=O)C(O)C(O)C(=O)NC(CC(C)C)C1Cc2cccc(O)c2C(=O)O1 (stereo not shown) [VII-10-1] | 94 |
| CCCCCCCCNC(CC(N)=O)C(O)C(O)C(=O)NC(CC(C)C)C1Cc2cccc(O)c2C(=O)O1 (stereo not shown) [VII-10-3] | 94 |
| CCCCNC(=O)CC(NCCCC)C(O)C(O)C(=O)NC(CC(C)C)C1Cc2cccc(O)c2C(=O)O1 (stereo not shown) [VII-10-4] | 72 |
| CCCCCCCCCCCCCCCCCCNC(CC(N)=O)C(O)C(O)C(=O)NC(CC(C)C)C1Cc2cccc(O)c2C(=O)O1 (stereo not shown) [VII-10-5] | 89 |
| CCNC(CC(N)=O)C(O)C(OC(C)=O)C(=O)NC(CC(C)C)C1Cc2cccc(O)c2C(=O)O1 (stereo not shown) [VII-11-1] | 72 |
| CCNC(CC(N)=O)C(O)C(OC(=O)CC)C(=O)NC(CC(C)C)C1Cc2cccc(OC(=O)C(C)C)c2C(=O)O1 (stereo not shown) [VII-12-1] | 56 |
| CCNC(CC(N)=O)C(O)C(O)C(=O)NC(CC(C)C)C1Cc2cccc(OC(C)=O)c2C(=O)O1 (stereo not shown) [VII-13-1] | 83 |
| CC(=O)Oc1cccc2c1C(=O)OC(C(CC(C)C)NC(=O)C(O)C(O)C(CC(N)=O)NCC(C)C)C2 (stereo not shown) [VII-13-2] | 83 |
| CCNC(CC(N)=O)C(O)C(O)C(=O)NC(CC(C)C)C1Cc2cccc(OC(=O)CC)c2C(=O)O1 (stereo not shown) [VII-13-3] | 83 |
| CCCCOc1cccc2c1C(=O)OC(C(CC(C)C)NC(=O)C(O)C(O)C(CC(=O)NC)NCC)C2 (stereo not shown) [VII-14-1] | 72 |
| CCNC(CC(N)=O)C(O)C(O)C(=O)NC(CC(C)C)C1Cc2cccc(OC)c2C(=O)O1 (stereo not shown) [VII-14-2] | 83 |
| CCNC(=O)CC(NCC)C(O)C(OC(=O)CC)C(=O)NC(CC(C)C)C1Cc2cccc(OC)c2C(=O)O1 (stereo not shown) [VII-15-4] | 44 |
